Measured values as given in patent US11472793B2, “Inhibitors of cysteine proteases and methods of use thereof” (priority 2020, dated 2022).
Like-named read-outs stand apart in the source and are kept apart here.

Columns and labels:
[1] = biological target: 229E mPRO (Human coronavirus 229E (HCoV-229E), UniProt P0C6X1); assay: 229E mPRO enzymatic assay; format: biochemical, Human Coronavirus (HCov) 229E
Protocol: Compounds were assayed using standard methods to assess compound activity and IC50. […] The assay buffer contained 20 mM of Tris-HCl (pH 7.3), 100 mM of NaCl, 1 mM of EDTA, 5 mM of TCEP and 0.1% BSA.
The compounds were added to an assay plate.
IC50 values of compounds were calculated with the GraphPad Prism software using the nonlinear regression model of log(inhibitor) vs. response—Variable slope (four parameters). The inhibition activity was calculated using the formula below, IC50 values was calculated using the Inhibition % data. Inhibition %=[(Sample−Average ZPE)/(Average HPE−Average ZPE)]*100%
^#HEP: Hundred percent effect controls. Containing substrate+enzyme+1 μM GC376.
Containing enzyme+substrate, no compound.
Sample: Compound activity testing wells. Containing compound+enzyme+substrate.
BG: Compound background control wells. Containing compound+substrate, no enzyme.

[2] = test system: HCoV 229E; assay: HCoV 229E cytopathic effect (CPE) assay; format: cell-based, Human Coronavirus (HCov) 229E; conditions: read-out: 229E CPE EC50 (μM)
Protocol: The antiviral activity of compounds was calculated based on the protection of the virus-induced CPE at each concentration normalized by the virus control.
Reagents and instruments used in this assay include luminescent cell viability assay kit CellTiter Glo (Promega) and Microplate Reader Synergy2 (BioTek).
Cytopathic effect (CPE) was measured by CellTiter Glo following the manufacturer's manual. The antiviral activity of compounds was calculated based on the protection of the virus-induced CPE at each concentration normalized by the virus control.

229E mPRO, sequence (P0C6X1 2966-3267 limits assumed): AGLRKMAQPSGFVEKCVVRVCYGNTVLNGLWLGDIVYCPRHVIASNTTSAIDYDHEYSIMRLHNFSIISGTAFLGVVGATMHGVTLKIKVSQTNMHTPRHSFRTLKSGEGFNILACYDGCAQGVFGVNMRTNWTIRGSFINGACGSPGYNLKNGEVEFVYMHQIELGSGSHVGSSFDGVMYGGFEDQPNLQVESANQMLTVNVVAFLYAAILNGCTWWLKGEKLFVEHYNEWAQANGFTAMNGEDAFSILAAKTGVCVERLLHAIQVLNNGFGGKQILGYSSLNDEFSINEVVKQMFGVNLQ

Compound	IC50 ([1]; read-out: 229E mPRO IC50)	IC50 [1]	EC50 [2]
COc1cccc2[nH]c(C(=O)N3C[C@@H]4CC[C@@H]4[C@H]3C(=O)N[C@H](C#N)C[C@@H]3CCNC3=O)cc12 (single isomer, unassigned) [547 (Isomer 2)]	< 2000 nM		
N#C[C@H](C[C@@H]1CCCNC1=O)NC(=O)C1CC2(CCC2)CN1C(=O)c1cc2cccc(Cl)c2[nH]1 (single isomer, unassigned) [729 (Isomer 1)]	< 2000 nM		
N#C[C@H](C[C@@H]1CCCNC1=O)NC(=O)C1CC2(CCC2)CN1C(=O)c1cc2cccc(Cl)c2[nH]1 (single isomer, unassigned) [731 (Isomer 1)]		< 2000 nM	< 2 µM
N#C[C@H](C[C@@H]1CCCNC1=O)NC(=O)C1CC2(CN1C(=O)c1cc3cccc(Cl)c3[nH]1)CC(F)(F)C2 (single isomer, unassigned) [743 (Isomer 2)]		< 2000 nM	< 2 µM
